Data as given in ChEMBL document CHEMBL1145001, “Angiotensin II AT1 receptor antagonists. Clinical implications of active metabolites” (J Med Chem, 2003).

Legend:
[1] = Effective concentration of compound to stimulate 300% increase of growth hormone secretion; format: functional
[2] = biological target: T1, Type-1 angiotensin II receptor (Homo sapiens, UniProt P30556); experiment: Compound was tested for inhibition against Angiotensin II receptor, type 1
T1 sequence (P30556 whole entry): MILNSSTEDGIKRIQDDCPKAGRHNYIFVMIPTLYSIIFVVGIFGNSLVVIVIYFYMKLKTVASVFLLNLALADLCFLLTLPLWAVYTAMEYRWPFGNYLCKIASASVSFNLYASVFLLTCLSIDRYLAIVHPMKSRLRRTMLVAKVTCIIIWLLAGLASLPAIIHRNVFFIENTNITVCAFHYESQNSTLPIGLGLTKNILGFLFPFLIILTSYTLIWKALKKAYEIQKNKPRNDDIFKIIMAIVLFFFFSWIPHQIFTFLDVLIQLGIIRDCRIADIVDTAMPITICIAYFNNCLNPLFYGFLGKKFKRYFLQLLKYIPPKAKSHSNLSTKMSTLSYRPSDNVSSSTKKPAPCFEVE

[3] = Renal clearance value was evaluated; format: ADME, organism-based, Kidney; details: in vivo
[4] = Total clearance value was evaluated; format: ADME, organism-based; details: in vivo
[5] = Acid dissociation value was evaluated; format: ADME
[6] = Half life of compound was determined; format: ADME
[7] = biological target: T2, Type-1 angiotensin II receptor (Homo sapiens) (UniProt P30556); experiment: Inhibition against Angiotensin II receptor, type 1
T2 sequence (whole entry): T1 sequence (P30556 whole entry)

[8] = biological target: T2, Type-1 angiotensin II receptor (Homo sapiens); experiment: Relative binding affinity of compound to Angiotensin II receptor, type 1 was determined
[9] = Acid dissociation constant was evaluated; format: ADME
Phosphodiesterase 4 = Phosphodiesterase 4 (Homo sapiens, UniProt P27815+Q08499+Q07343+Q08493); experiment: Inhibition of phosphodiesterase 4 (PDE 4); format: protein assay
Phosphodiesterase 3 = Phosphodiesterase 3 (Homo sapiens, UniProt Q14432+Q13370); experiment: Inhibition of phosphodiesterase 3(PDE 3); format: protein assay
[10] = Inhibition of bovine cAMP phosphodiesterase; set-up: species or system Bos taurus
[11] = Inhibition of Phosphodiesterase 4
[12] = Inhibition of calcium calmodulin-dependent cGMP-Phosphodiesterase 1
[13] = biological target: T1, Type-1 angiotensin II receptor; experiment: Inhibition constant against Angiotensin II receptor, type 1 was determined
[14] = Absolute bioavailability of compound was determined; format: ADME, organism-based; details: in vivo; read-out: Bioavailabiility

SMILES	CL_renal [3]	CLtotal [4]	pKa [5]	half-life [6]	AT1 affinity [7]	Relative binding affinity [8]	further results
CC(C)(N)CC(=O)N[C@@H]1CCc2ccccc2N(Cc2ccc(-c3ccccc3-c3nn[nH]n3)cc2)C1=O							EC50 [1]: 0.003 µM
Cc1nc(C(=O)O)nc2c1CCC(=O)N2Cc1ccc(-c2ccccc2-c2nnn[nH]2)cc1							IC50 [2]: 0.011 µM
CNC(=O)NCc1ccccc1-c1ccc(CN2C(=O)[C@H](NC(=O)CC(C)(C)N)CCc3ccccc32)cc1							EC50 [1]: 0.003 µM
CCOc1nc2cccc(C(=O)OC(C)OC(=O)OC3CCCCC3)c2n1Cc1ccc(-c2ccccc2-c2nn[nH]n2)cc1 (stereo not drawn)							AT1 affinity [8]: 280
Cc1nc(C)c2c(O)cc(=O)n(Cc3ccc(-c4ccccc4-c4nnn[nH]4)cc3)c2n1 [ENOLTASOSARTAN]							IC50 [2]: 0.00017 µM; pKa [9]: 9.4
CCCCc1nc(SCc2ccc(-c3ccccc3-c3nn[nH]n3)cc2)c2ccccc2n1							IC50 (Phosphodiesterase 4): 2.9 µM; IC50 (Phosphodiesterase 3): 8 µM
O=C(O)c1nc(CO)nc2c1CCC(=O)N2Cc1ccc(-c2ccccc2-c2nn[nH]n2)cc1							IC50 [2]: 0.044 µM
CCCCc1nc(Cl)c(CO)n1Cc1ccc(-c2ccccc2-c2nnn[n-]2)cc1.[K+] [LOSARTAN POTASSIUM]	1.1 mL/s	10 mL/s		1.5 h	6.4 nM l-1	50	IC50 [11]: 26 µM; IC50 [10]: 139 µM; IC50 [12]: 100 µM
CCCCc1nc(Cl)c(CO)n1Cc1ccc(-c2ccccc2-c2nn[nH]n2)cc1 [LOSARTAN POTASSIUM]			4.9				
CC(O)CCC(=O)N(c1ccc(-c2ccccc2-c2nnn[nH]2)cc1)[C@H](C(=O)O)C(C)C (stereo partly drawn)							IC50 [2]: 0.47 µM; Ki [13]: 0.37 µM
CCCc1nc2c(C)cc(-c3nc4ccccc4n3C)cc2n1Cc1ccc(-c2ccccc2C(=O)O)cc1	< 5 mL/s	19 mL/s	4.5	> 20 h	1 nM l-1	10	bioavailability [14]: 43%
CCCCc1ncc(/C=C(\Cc2cccs2)C(=O)O)n1Cc1ccc(C(=O)O)cc1 [EPROSARTAN]	0.6 mL/s	2.5 mL/s	4	5 h	1.5 nM l-1	100	

Now from value to molecule, other results behind:

CL_renal [3]	CLtotal [4]	pKa [5]	half-life [6]	AT1 affinity [7]	Relative binding affinity [8]	SMILES	further results
0.02 mL/s	5.1 mL/s	4.7	10 h	1.3 nM l-1		CCCCC1=NC2(CCCC2)C(=O)N1Cc1ccc(-c2ccccc2-c2nnn[nH]2)cc1 [IRBESARTAN]	
		4		20 nM l-1		CCCCc1nc(Cl)c(C=O)n1Cc1ccc(-c2ccccc2-c2nn[nH]n2)cc1	
		4	11 h	1.2 nM l-1	20	Cc1nc(C)c2c(n1)N(Cc1ccc(-c3ccccc3-c3nnn[nH]3)cc1)C(=O)CC2 [TASOSARTAN]	IC50 [2]: 0.032 µM
4.8 mL/s	37 mL/s	3.1	6.1 h	1.4 nM l-1		CCCCC(=O)N(Cc1ccc(-c2ccccc2-c2nnn[nH]2)cc1)[C@H](C(=O)O)C(C)C	
0.4 mL/s	0.78 mL/s	2.8	4.4 h	1.3 nM l-1	10	CCCCc1nc(Cl)c(C(=O)O)n1Cc1ccc(-c2ccccc2-c2nn[nH]n2)cc1 [CARBOXYLIC ACID METABOLITE]	IC50 [10]: 38.9 µM
> 7 mL/s	1 mL/s	3.9	> 9 h	0.1 nM l-1	1	CCOc1nc2cccc(C(=O)O)c2n1Cc1ccc(-c2ccccc2-c2nnn[nH]2)cc1	
